PubChem BioAssay (NCI)
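Briefly, cells in 96-well plates were exposed to five compound concentrations for 48 h, and endpoints were estimated by linear interpolation. GI50 = concentration required for 50% inhibition of growth. TGI is the concentration that stops growth completely.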

What was measured:
Assay in all cases: NCI tumour cell line growth inhibition, 48 h
[1] = test system: NCI-H522 lung
[2] = test system: SF-268 CNS
[3] = test system: M14 melanoma
[4] = test system: UACC-62 melanoma
[5] = test system: TK-10 renal
[6] = test system: SN12C renal
[7] = test system: HT29 colon
[8] = test system: BT-549 breast
[9] = test system: LOX IMVI melanoma
[10] = test system: UACC-257 melanoma
[11] = test system: MDA-MB-231 breast
[12] = test system: OVCAR-5 ovarian
[13] = test system: COLO 205 colon
[14] = test system: OVCAR-4 ovarian
[15] = test system: SK-OV-3 ovarian
[16] = test system: CCRF-CEM leukemia
[17] = test system: SK-MEL-28 melanoma
[18] = test system: MDA-MB-435
[19] = test system: HOP-92 NSCLC
[20] = test system: HCT-15 colon
[21] = test system: OVCAR-3 ovarian
[22] = test system: HCC-2998 colon
[23] = test system: NCI-H226 lung
[24] = test system: ACHN renal
[25] = test system: HL-60(TB) leukemia
[26] = test system: HCT-116 colon
[27] = test system: A498 renal
[28] = test system: EKVX NSCLC
[29] = test system: SK-MEL-5 melanoma
[30] = test system: T-47D breast
[31] = test system: SW-620 colon
[32] = test system: SNB-19 CNS
[33] = test system: 786-0 renal
[34] = test system: MALME-3M melanoma
[35] = test system: KM12 colon
[36] = test system: NCI-H23 lung
[37] = test system: OVCAR-8 ovarian
[38] = test system: SF-295 CNS
[39] = test system: SNB-75 CNS
[40] = test system: NCI-H460 lung
[41] = test system: K-562 leukemia
[42] = test system: SF-539 CNS
[43] = test system: U251 CNS
[44] = test system: PC-3 prostate
[45] = test system: A549 NSCLC
[46] = test system: MOLT-4 leukemia
[47] = test system: MCF7 breast
[48] = test system: HOP-62 NSCLC
[49] = test system: SK-MEL-2 melanoma
[50] = test system: UO-31 renal
[51] = test system: SR leukemia
[52] = test system: CAKI-1 renal
[53] = test system: HS 578T breast
[54] = test system: IGROV1 ovarian
[55] = test system: RXF 393 renal
[56] = test system: NCI/ADR-RES ovarian
[57] = test system: DU-145 prostate

**Q.** With O=C(Nc1ccc(Cl)cc1)Nc1nc2ccc([N+](=O)[O-])cc2s1 as the compound, how does the GI50 [1] read?
**A.** 378 nM

**Q.** And the TGI [1]?
**A.** 2890 nM

**Q.** And the GI50 [2]?
**A.** 1090 nM

**Q.** What about the TGI [2] of the same compound?
**A.** 3.46 µM

**Q.** What about the GI50 [3] of the same compound?
**A.** 815 nM

**Q.** And the TGI [3]?
**A.** 2240 nM

**Q.** And the GI50 [4]?
**A.** 485 nM

**Q.** What about the TGI [4] of the same compound?
**A.** 2140 nM

**Q.** And the GI50 [5]?
**A.** 889 nM

**Q.** And the TGI [5]?
**A.** 4.32 µM

**Q.** And the GI50 [6]?
**A.** 647 nM

**Q.** And the TGI [6]?
**A.** 2590 nM

**Q.** What about the GI50 [7] of the same compound?
**A.** 2570 nM

**Q.** And the TGI [7]?
**A.** 7.14 µM

**Q.** What about the GI50 [8] of the same compound?
**A.** 593 nM

**Q.** And the TGI [8]?
**A.** 1760 nM

**Q.** What about the GI50 [9] of the same compound?
**A.** 727 nM

**Q.** And the TGI [9]?
**A.** 2060 nM

**Q.** What about the GI50 [10] of the same compound?
**A.** 639 nM

**Q.** What about the TGI [10] of the same compound?
**A.** 2790 nM

**Q.** What about the GI50 [11] of the same compound?
**A.** 1120 nM

**Q.** What about the TGI [11] of the same compound?
**A.** 2920 nM

**Q.** And the GI50 [12]?
**A.** 1850 nM

**Q.** What about the TGI [12] of the same compound?
**A.** 4.45 µM

**Q.** And the GI50 [13]?
**A.** 1700 nM

**Q.** And the TGI [13]?
**A.** 3.29 µM

**Q.** And the GI50 [14]?
**A.** 573 nM

**Q.** And the TGI [14]?
**A.** 3.13 µM

**Q.** What about the GI50 [15] of the same compound?
**A.** 843 nM

**Q.** What about the TGI [15] of the same compound?
**A.** 4.51 µM

**Q.** And the GI50 [16]?
**A.** 393 nM

**Q.** And the TGI [16]?
**A.** 1850 nM

**Q.** And the GI50 [17]?
**A.** 663 nM

**Q.** And the TGI [17]?
**A.** 2020 nM

**Q.** And the GI50 [18]?
**A.** 729 nM

**Q.** And the TGI [18]?
**A.** 2200 nM

**Q.** What about the GI50 [19] of the same compound?
**A.** 187 nM

**Q.** And the TGI [19]?
**A.** 628 nM

**Q.** And the GI50 [20]?
**A.** 675 nM

**Q.** And the TGI [20]?
**A.** 2110 nM

**Q.** What about the GI50 [21] of the same compound?
**A.** 435 nM

**Q.** What about the TGI [21] of the same compound?
**A.** 1590 nM

**Q.** And the GI50 [22]?
**A.** 590 nM

**Q.** What about the TGI [22] of the same compound?
**A.** 2080 nM

**Q.** And the GI50 [23]?
**A.** 777 nM

**Q.** What about the TGI [23] of the same compound?
**A.** 2460 nM

**Q.** And the GI50 [24]?
**A.** 751 nM

**Q.** And the TGI [24]?
**A.** 2290 nM

**Q.** What about the GI50 [25] of the same compound?
**A.** 604 nM

**Q.** What about the TGI [25] of the same compound?
**A.** 2020 nM

**Q.** What about the GI50 [26] of the same compound?
**A.** 346 nM

**Q.** What about the TGI [26] of the same compound?
**A.** 1270 nM

**Q.** What about the GI50 [27] of the same compound?
**A.** 275 nM

**Q.** What about the TGI [27] of the same compound?
**A.** 996 nM

**Q.** What about the GI50 [28] of the same compound?
**A.** 886 nM

**Q.** What about the TGI [28] of the same compound?
**A.** 2660 nM

**Q.** What about the GI50 [29] of the same compound?
**A.** 365 nM

**Q.** What about the TGI [29] of the same compound?
**A.** 1330 nM

**Q.** What about the GI50 [30] of the same compound?
**A.** 308 nM

**Q.** What about the TGI [30] of the same compound?
**A.** 1280 nM

**Q.** What about the GI50 [31] of the same compound?
**A.** 840 nM

**Q.** And the TGI [31]?
**A.** 2340 nM

**Q.** And the GI50 [32]?
**A.** 735 nM

**Q.** And the TGI [32]?
**A.** 2750 nM

**Q.** What about the GI50 [33] of the same compound?
**A.** 776 nM

**Q.** And the TGI [33]?
**A.** 2390 nM

**Q.** And the GI50 [34]?
**A.** 467 nM

**Q.** What about the TGI [34] of the same compound?
**A.** 1870 nM

**Q.** And the GI50 [35]?
**A.** 642 nM

**Q.** What about the TGI [35] of the same compound?
**A.** 2310 nM

**Q.** What about the GI50 [36] of the same compound?
**A.** 332 nM

**Q.** And the TGI [36]?
**A.** 1260 nM

**Q.** What about the GI50 [37] of the same compound?
**A.** 1270 nM

**Q.** And the TGI [37]?
**A.** 4.7 µM

**Q.** What about the GI50 [38] of the same compound?
**A.** 728 nM

**Q.** And the TGI [38]?
**A.** 2120 nM

**Q.** What about the GI50 [39] of the same compound?
**A.** 952 nM

**Q.** What about the TGI [39] of the same compound?
**A.** 3.51 µM

**Q.** What about the GI50 [40] of the same compound?
**A.** 468 nM

**Q.** What about the TGI [40] of the same compound?
**A.** 1700 nM

**Q.** What about the GI50 [41] of the same compound?
**A.** 375 nM

**Q.** What about the TGI [41] of the same compound?
**A.** 1550 nM

**Q.** And the GI50 [42]?
**A.** 915 nM

**Q.** And the TGI [42]?
**A.** 2350 nM

**Q.** And the GI50 [43]?
**A.** 606 nM

**Q.** What about the TGI [43] of the same compound?
**A.** 2570 nM

**Q.** What about the GI50 [44] of the same compound?
**A.** 380 nM

**Q.** And the TGI [44]?
**A.** 1630 nM

**Q.** What about the GI50 [45] of the same compound?
**A.** 837 nM

**Q.** What about the TGI [45] of the same compound?
**A.** 3.43 µM

**Q.** And the GI50 [46]?
**A.** 438 nM

**Q.** What about the TGI [46] of the same compound?
**A.** 1980 nM

**Q.** What about the GI50 [47] of the same compound?
**A.** 460 nM

**Q.** And the TGI [47]?
**A.** 1910 nM

**Q.** And the GI50 [48]?
**A.** 1190 nM

**Q.** And the TGI [48]?
**A.** 3.13 µM

**Q.** And the GI50 [49]?
**A.** 554 nM

**Q.** What about the TGI [49] of the same compound?
**A.** 2320 nM

**Q.** What about the GI50 [50] of the same compound?
**A.** 545 nM

**Q.** What about the TGI [50] of the same compound?
**A.** 2450 nM

**Q.** What about the GI50 [51] of the same compound?
**A.** 566 nM

**Q.** What about the TGI [51] of the same compound?
**A.** 2280 nM

**Q.** And the GI50 [52]?
**A.** 653 nM

**Q.** And the TGI [52]?
**A.** 2510 nM

**Q.** And the GI50 [53]?
**A.** 1170 nM

**Q.** What about the TGI [53] of the same compound?
**A.** 3.87 µM

**Q.** And the GI50 [54]?
**A.** 1080 nM

**Q.** What about the TGI [54] of the same compound?
**A.** 2680 nM

**Q.** And the GI50 [55]?
**A.** 587 nM

**Q.** What about the TGI [55] of the same compound?
**A.** 1940 nM

**Q.** What about the GI50 [56] of the same compound?
**A.** 880 nM

**Q.** What about the TGI [56] of the same compound?
**A.** 2280 nM

**Q.** What about the GI50 [57] of the same compound?
**A.** 1110 nM

**Q.** What about the TGI [57] of the same compound?
**A.** 5.15 µM
